This note sets out measurements from patent publication US7968570B2, “Isoindolone compounds and their use as metabotropic glutamate receptor potentiators” (AstraZeneca AB, priority 2004, dated 2011).

T1 sequence (Q14416 19-872): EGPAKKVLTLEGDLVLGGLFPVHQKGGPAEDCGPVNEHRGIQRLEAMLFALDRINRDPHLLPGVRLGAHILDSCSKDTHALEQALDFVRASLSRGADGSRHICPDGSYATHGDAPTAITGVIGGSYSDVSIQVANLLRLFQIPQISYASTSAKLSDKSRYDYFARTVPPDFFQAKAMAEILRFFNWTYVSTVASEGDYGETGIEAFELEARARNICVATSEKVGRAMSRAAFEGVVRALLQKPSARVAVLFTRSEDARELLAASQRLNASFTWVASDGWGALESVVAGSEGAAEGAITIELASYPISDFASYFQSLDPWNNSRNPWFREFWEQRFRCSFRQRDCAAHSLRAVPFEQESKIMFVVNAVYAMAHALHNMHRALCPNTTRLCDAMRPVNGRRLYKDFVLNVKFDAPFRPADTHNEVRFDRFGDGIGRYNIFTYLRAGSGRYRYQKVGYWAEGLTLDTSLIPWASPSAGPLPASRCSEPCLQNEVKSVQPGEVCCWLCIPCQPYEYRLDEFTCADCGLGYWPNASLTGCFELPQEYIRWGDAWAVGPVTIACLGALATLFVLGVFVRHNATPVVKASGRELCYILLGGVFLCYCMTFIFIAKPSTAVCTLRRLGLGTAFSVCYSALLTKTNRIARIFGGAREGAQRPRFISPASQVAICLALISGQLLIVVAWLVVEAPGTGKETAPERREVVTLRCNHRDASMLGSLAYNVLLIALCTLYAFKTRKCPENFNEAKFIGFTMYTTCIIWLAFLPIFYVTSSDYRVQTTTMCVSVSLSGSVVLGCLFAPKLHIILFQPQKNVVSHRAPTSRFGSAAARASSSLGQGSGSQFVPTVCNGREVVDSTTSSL

One experiment has as its target T1, human mGluR2 receptor (Homo sapiens, UniProt Q14416).
T1 construct: expressed in transfected cells
Briefly: [35S]-GTPγS binding assay of mGluR2 receptor activation. In kind it is biochemical.
Conditions: not given
The protocol: A [^35S]-GTPγS binding assay was used to functionally assay mGluR2 receptor activation. The allosteric activator activity of compounds at the human mGluR2 receptor were measured using a [^35S]-GTPγS binding assay with membranes prepared from CHO cells which stably express the human mGluR2. The assay is based upon the principle that agonists bind to G-protein coupled receptors to stimulate GDP-GTP exchange at the G-protein. Since [^35S]-GTPγS is a non-hydrolyzable GTP analog, it can be used to provide an index of GDP-GTP exchange and, thus, receptor activation. The GTPγS binding assay therefore provides a quantitative measure of receptor activation.
Membranes were prepared from CHO cells stably transfected with human mGluR2. Membranes (30 μg protein) were incubated with test compound (3 nM to 300 μM) for 15 minutes at room temperature prior to the addition of 1 μM glutamate, and incubated for 30 min at 30° C. in 500 μl assay buffer (20 mM HEPES, 100 mM NaCl, 10 mM MgCl2), containing 30 μM GDP and 0.1 nM [^35S]-GTPγS (1250 Ci/mmol). Reactions were carried out in triplicate in 2 ml polypropylene 96-well plates. Reactions were terminated by vacuum filtration using a Packard 96-well harvester and Unifilter-96, GF/B filter microplates. The filter plates were washed 4×1.5 ml with ice-cold wash buffer (10 mM sodium phosphate buffer, pH 7.4). The filter plates were dried and 35 μl of scintillation fluid (Microscint 20) was added to each well. The amount of radioactivity bound was determined by counting plates on the Packard TopCount. Data was analyzed using GraphPad Prism, and EC50 and Emax values (relative to the maximum glutamate effect) were calculated using non-linear regression.
Turning to `Cc1cc(-c2nnc(CN(C)C)o2)cc2c1C(=O)N(Cc1ccc(OC(F)(F)F)cc1)C2` [Example 175, 5-(5-Dimethylamino-methyl-[1,3,4]oxadiazol-2-yl)-7-methyl-2-(4-trifluorometh-oxy-benzyl)-2,3-dihydro-isoindol-1-one], it took 6400 nM to reach a half-maximal effect (EC50).

As for `Cc1cc(-c2nnc(CN3CCOCC3)o2)cc2c1C(=O)N(Cc1ccc(OC(F)(F)F)cc1)C2` [Example 176, 7-Methyl-5-(5-morpholin-4-ylmethyl-[1,3,4]oxadiazol-2-yl)-2-(4-trifluorometh-oxy-benzyl)-2,3-dihydro-isoindol-1-one], the response was half-maximal at 1290 nM (EC50). Compared with the last compound, the EC50 is about 5-fold lower.

The compound `Cc1cc(-c2nc(CN(C)C)no2)cc2c1C(=O)N(Cc1ccc(OC(F)(F)F)cc1)C2` [Example 180, 5-(3-Dimethylamino-methyl-[1,2,4]oxadiazol-5-yl)-7-methyl-2-(4-trifluorometh-oxy-benzyl)-2,3-dihydro-isoindol-1-one] came in with an EC50 of 100 nM.

Turning to `CCCN1CCC(Cc2cc(C)c3c(c2)CN(Cc2ccc(OC(F)(F)F)cc2)C3=O)CC1` [Example 172, 7-methyl-5-(1-propyl-piperidin-4-ylmethyl)-2-(4-trifluorometh-oxy-benzyl)-2,3-dihydro-isoindol-1-one], the EC50 was found to be 1510 nM.

The experiment is the same for the next values; noted with them: membranes from CHO cells stably expressing human mGluR2; 1 μM glutamate.
The compound `COc1cc(C2=CCN(C(=O)OC(C)(C)C)CC2)cc2c1C(=O)N(Cc1ccc(OC(F)(F)F)cc1)C2` [Example 85, 4-[7-Methoxy-1-oxo-2-(4-trifluoromethoxy-benzyl)-2,3-dihydro-1H-isoindol-5-yl]-3,6-dihydro-2H-pyridine-1-carboxylic acid tert-butyl ester] yielded a concentration for a half-maximal effect (EC50) of 80 nM.

Compound `COc1cc(C2=CCN(C)CC2)cc2c1C(=O)N(Cc1ccc(OC(F)(F)F)cc1)C2` [Example 90, 7-Methoxy-5-(1-methyl-1,2,3,6-tetrahydro-pyridin-4-yl)-2-(4-trifluoromethoxy-benzyl)-2,3-dihydro-isoindol-1-one] returned an EC50 of 3820 nM.

Regarding `CCCN1CCN(c2ccc3c(c2)CN(Cc2ccc(OC(F)(F)F)cc2)C3=O)CC1` [Example 146, 5-(4-Propyl-piperazin-1-yl)-2-(4-tri-fluoromethoxy-benzyl)-2,3-dihydro-isoindol-1-one], the EC50 worked out at 4420 nM.

`CN1CCN(c2cc(Cl)c3c(c2)CN(Cc2ccc(Cl)cc2)C3=O)CC1` [Example 133, 7-Chloro-2-(4-chlorobenzyl)-5-(4-methyl-piperazin-1-yl)-2,3-dihydroisoindol-1-one] displayed an EC50 of 590 nM. Compared with the last compound, the EC50 is about 7.5-fold lower.

As for `COc1cc(N2CCCN(C)CC2)cc2c1C(=O)N(Cc1ccc(OC(F)(F)F)cc1)C2` [Example 128, 7-Methoxy-5-(4-methyl-[1,4]-diazepan-1-yl)-2-(4-triflouoromethoxy-benzyl)-2,3-dihydro-isoindol-1-one], the midpoint of the response, the EC50, lay at 5040 nM.

For the compound `Cc1cc(CNCc2ccncc2)cc2c1C(=O)N(Cc1ccc(OC(F)(F)F)cc1)C2` [Example 42, 7-Methyl-5-{[(pyridine-4-ylmethyl)-amino]-methyl}-2-(4-trifluoromethoxy-benzyl)-2,3-dihydro-isoindol-1-one], the EC50 turned out to be 470 nM.

As for `Cc1cc(N2CCCN3CCCCC3C2)cc2c1C(=O)N(Cc1ccc(OC(F)(F)F)cc1)C2` (stereo not shown) [Example 122, 7-Methyl-5-(octahydropyrido [1,2-a][1,4]diazepin-2-yl)-2-(4-trifluoromethoxy-benzyl)-2,3-dihydroisoindol-1-one], the EC50 is 3550 nM.

Take `Cc1cc(CN2CCC(CCCc3ccccc3)CC2)cc2c1C(=O)N(Cc1ccc(OC(F)(F)F)cc1)C2` [Example 54, 7-Methyl-5-[4-(3-phenylpropyl)-piperidin-1-ylmethyl]-2-(4-trifluoromethoxy-benzyl)-2,3-dihydroisoindol-1-one]: it took 100 nM to reach a half-maximal effect (EC50).

For `O=C1c2c(Cl)cc(N3CCN(c4ccncc4)CC3)cc2CN1Cc1ccc(OC(F)(F)F)cc1` [Example 145, 7-Chloro-5-(4-pyridin-4-yl-piperazin-1-yl)-2-(4-trifluoromethoxy-benzyl)-2,3-dihydro-isoindol-1-one], a half-maximal effect (EC50) was put at 400 nM.

On to `O=C1c2c(Cl)cc(Br)cc2CN1Cc1ccc(Cl)cc1` [Example 34, 5-Bromo-7-chloro-2-(4-chloro-benzyl)-2,3-dihydro-isoindol-1-one], for which the EC50 is 470 nM.

`Cc1cc(-c2ccc(CN(C)C)cc2)cc2c1C(=O)N(Cc1ccc(OC(F)(F)F)cc1)C2` [Example 86, 5-(4-Dimethylamino-methyl-phenyl)-7-methyl-2-(4-trifluoromethoxy-benzyl)-2,3-dihydro-isoindol-1-one] showed an EC50 of 60 nM.

For the compound `Cc1cc(CNCc2ccccn2)cc2c1C(=O)N(Cc1ccc(OC(F)(F)F)cc1)C2` [Example 40, 7-Methyl-5-{[(pyridine-2-ylmethyl)-amino]-methyl}-2-(4-trifluoromethoxy-benzyl)-2,3-dihydro-isoindol-1-one], the EC50 came to 1450 nM.

`Cc1cc(CN(C)Cc2ccccc2)cc2c1C(=O)N(Cc1ccc(OC(F)(F)F)cc1)C2` [compound 35, 5-[(Benzylmethylamino)-methyl]-7-methyl-2-(4-trifluoromethoxy-benzyl)-2,3-dihydro-isoindol-1-one] registered an EC50 of 70 nM.

In turn, `Cc1cc(-c2cccc(CN(C)C)c2)cc2c1C(=O)N(Cc1ccc(OC(F)(F)F)cc1)C2` [Example 87, 5-(3-Dimethylamino-methyl-phenyl)-7-methyl-2-(4-trifluoromethoxy-benzyl)-2,3-dihydro-isoindol-1-one] came in with an EC50 of 290 nM.

Take `Cc1cc(N2CCC(N(C)C)C2)cc2c1C(=O)N(Cc1ccc(OC(F)(F)F)cc1)C2` (stereo not shown) [Example 115, 5-(3-dimethylamino-pyrollidin-1-yl)-7-methyl-2-(4-trifluoromethoxy-benzyl)-2,3-dihydroisoindol-1-one]: the concentration for a half-maximal effect (EC50) was 300 nM.

On to `Cc1cc(N2CCN(CCN(C)C)CC2)cc2c1C(=O)N(Cc1ccc(OC(F)(F)F)cc1)C2` [Example 140, 5-[4-(2-Dimethylamino-ethyl)-piperazin-1-yl]-7-methyl-2-(4-trifluoro-methoxy-benzyl)-2,3-dihydro-isoindol-1-one], for which the EC50 is 1200 nM.

The compound `Cc1cc(N2CCN3CCCC3C2)cc2c1C(=O)N(Cc1ccc(Cl)cc1)C2` (stereo not shown) [Example 118, 2-(4-Chlorobenzyl)-5-(hexahydropyrrolo [1,2-a]pyrazin-2-yl)-7-methyl-2,3-dihydroisoindol-1-one] displayed an EC50 of 810 nM.

On to `Cc1cc(CN2CC=CC2)cc2c1C(=O)N(Cc1ccc(OC(F)(F)F)cc1)C2` [Example 39, 5-(2,5-Dihydro-pyrrol-1-ylmethyl)-7-methyl-2-(4-trifluoromethoxy-benzyl)-2,3-dihydro-isoindol-1-one], for which the EC50 turned out to be 2400 nM.

`CCN(CC)C(=O)C1CCCN(Cc2cc(C)c3c(c2)CN(Cc2ccc(OC(F)(F)F)cc2)C3=O)C1` (stereo not shown) [Example 50, 1-[7-Methyl-1-oxo-2-(4-trifluoromethoxy-benzyl)-2,3-dihydro-1H-isoindol-5-ylmethyl]-piperidine-3-carboxylic acid diethylamide] came in with an EC50 of 1810 nM.

With `Cc1cc(CN2CCN(c3ccccn3)CC2)cc2c1C(=O)N(Cc1ccc(OC(F)(F)F)cc1)C2` [Example 43, 7-Methyl-5-(4-pyridin-2-yl-piperazin-1-ylmethyl)-2-(4-trifluoromethoxy-benzyl)-2,3-dihydro-isoindol-1-one], it took 50 nM to reach a half-maximal effect (EC50).

`COc1cc(Br)cc2c1C(=O)N(Cc1ccc(Cl)cc1)C2` [Example 32, 5-Bromo-2-(4-chloro-benzyl)-7-methoxy-2,3-dihydro-isoindol-1-one] returned an EC50 of 2800 nM.

`Cc1cc(Br)cc2c1C(=O)N(Cc1ccc(Cl)cc1)C2` [Example 31, 5-Bromo-2-(4-chlorobenzyl)-7-methyl-2,3-dihydroisoindol-1-one] yielded an EC50 of 710 nM.

Regarding `Cc1cc(OCc2ccccn2)cc2c1C(=O)N(Cc1ccc(OC(F)(F)F)cc1)C2` [Example 82, 7-Methyl-5-(pyridine-2-ylmethoxy)-2-(4-trifluoromethoxy-benzyl)-2,3-dihydro-isoindol-1-one], the half-maximal effective concentration (EC50) came out at 100 nM.

For the compound `COc1cc(N2CCN3CCCC3C2)cc2c1C(=O)N(Cc1ccc(OC(F)(F)F)cc1)C2` (stereo not shown) [Example 124, 5- (Hexahydropyrrolo [1,2-a]pyrazin-2-yl)-7-methoxy-2-(4-trifluoromethoxy-benzyl)-2,3-dihydroisoindol-1-one], the EC50 is 1910 nM. Compared with the last compound, the EC50 is about 19-fold higher.

`Cc1cc(CNCCCc2ccccc2)cc2c1C(=O)N(Cc1ccc(OC(F)(F)F)cc1)C2` [Example 47, 7-Methyl-5-[(3-phenyl-propylamino)-methyl]-2-(4-trifluoromethoxy-benzyl)-2,3-dihydro-isoindol-1-one] came in with a concentration giving a half-maximal response (EC50) of 340 nM. Compared with the last compound, the EC50 is about 5.6-fold lower.

For `O=Cc1cnccc1-c1cc(Cl)c2c(c1)CN(Cc1ccc(Cl)cc1)C2=O` [Example 108, 4-[7-Chloro-2-(4-chloro-benzyl)-1-oxo-2,3-dihydro-1H-isoindol-5-yl]-pyridine-3-carbaldehyde], the EC50 stood at 460 nM. This EC50 and that of the compound before are within 1.5-fold of each other.

Compound `Cc1cc(N2CCN(CCc3ccncc3)CC2)cc2c1C(=O)N(Cc1ccc(OC(F)(F)F)cc1)C2` [Example 137] gave an EC50 of 100 nM.
